Results as given in patent publication US6727232B2, “Nucleoside peptide antibiotics of AA-896” (Wyeth Holdings Corporation, priority 2001, dated 2004).
Converted amounts (≈) assume the structure as drawn. Read-outs that look alike come from different tables or passages of the source.

What was measured:
Test in all cases: Broth dilution MIC
Type in all cases: cell-based
E. faecalis GC 4555 = details: Enterococcus faecalis, GC4555; E. faecalis GC 4555; Mueller-Hinton broth, 18 hours at 35° C.; read-out: Antimicrobial Activity (MIC)
Outline: (§1)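 Growth inhibition is scored in Mueller-Hinton broth carrying serially diluted compound and a bacterial inoculum. Incubation runs 18 hours at 35° C.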

P. aeruginosa GC 2214 = details: Pseudomonas aeruginosa, GC2214; P. aeruginosa GC 2214; Mueller-Hinton broth, 18 hours at 35° C.; read-out: Antimicrobial Activity (MIC)
Outline: as §1

S. aureus GC 1131 = details: Staphylococcus aureus, GC1131; S. aureus GC 1131; Mueller-Hinton broth, 18 hours at 35° C.; read-out: Antimicrobial Activity (MIC)
Outline: as §1

E. coli GC 3226 = details: Escherichia coli, GC3226; E. coli GC 3226; Mueller-Hinton broth, 18 hours at 35° C.; read-out: Antimicrobial Activity (MIC)
Outline: as §1

CNS GC 4547 = details: CNS GC 4547; Mueller-Hinton broth, 18 hours at 35° C.; read-out: Antimicrobial Activity (MIC)
Outline: as §1

E. coli GC 4559 = details: Escherichia coli, GC4559; E. coli GC 4559; Mueller-Hinton broth, 18 hours at 35° C.; read-out: Antimicrobial Activity (MIC)
Outline: as §1

P. rettgeri GC 4530 = details: Providencia rettgeri, GC4530; P. rettgeri GC 4530; Mueller-Hinton broth, 18 hours at 35° C.; read-out: Antimicrobial Activity (MIC)
Outline: as §1

E. coli GC 2203 = details: Escherichia coli, GC2203; E. coli GC 2203; Mueller-Hinton broth, 18 hours at 35° C.; read-out: Antimicrobial Activity (MIC)
Outline: as §1

S. aureus GC 4536 = details: Staphylococcus aureus, GC4536; S. aureus GC 4536; Mueller-Hinton broth, 18 hours at 35° C.; read-out: Antimicrobial Activity (MIC)
Outline: as §1

E. cloacae GC 3783 = details: Enterobacter cloacae, GC3783; E. cloacae GC 3783; Mueller-Hinton broth, 18 hours at 35° C.; read-out: Antimicrobial Activity (MIC)
Outline: as §1

E. faecalis GC 2242 = details: Enterococcus faecalis, GC2242; E. faecalis GC 2242; Mueller-Hinton broth, 18 hours at 35° C.; read-out: Antimicrobial Activity (MIC)
Outline: as §1

S. marcescens GC 4077 = details: Serratia marcescens, GC4077; S. marcescens GC 4077; Mueller-Hinton broth, 18 hours at 35° C.; read-out: Antimicrobial Activity (MIC)
Outline: as §1

K. pneumoniae GC 4534 = details: Klebsiella pneumoniae, GC4534; K. pneumoniae GC 4534; Mueller-Hinton broth, 18 hours at 35° C.; read-out: Antimicrobial Activity (MIC)
Outline: as §1

S. aureus GC 2216 = details: Staphylococcus aureus, GC2216; S. aureus GC 2216; Mueller-Hinton broth, 18 hours at 35° C.; read-out: Antimicrobial Activity (MIC)
Outline: as §1

E. faecalis GC 842 = details: Enterococcus faecalis, GC842; E. faecalis GC 842; Mueller-Hinton broth, 18 hours at 35° C.; read-out: Antimicrobial Activity (MIC)
Outline: as §1

CNS GC 4538 = details: CNS GC 4538; Mueller-Hinton broth, 18 hours at 35° C.; read-out: Antimicrobial Activity (MIC)
Outline: as §1

M. morganii GC 4531 = details: Morganella morganii, GC4531; M. morganii GC 4531; Mueller-Hinton broth, 18 hours at 35° C.; read-out: Antimicrobial Activity (MIC)
Outline: as §1

CNS GC 4537 = details: CNS GC 4537; Mueller-Hinton broth, 18 hours at 35° C.; read-out: Antimicrobial Activity (MIC)
Outline: as §1

E. coli GC 4560 = details: Escherichia coli, read-out: Antimicrobial Activity (MIC)
Outline: as §1

P. aeruginosa GC 4532 = details: Pseudomonas aeruginosa, GC4532; P. aeruginosa GC 4532; Mueller-Hinton broth, 18 hours at 35° C.; read-out: Antimicrobial Activity (MIC)
Outline: as §1

Row | SMILES | MIC (E. faecalis GC 4555) [µg/mL] | MIC (P. aeruginosa GC 2214) [µg/mL] | MIC (S. aureus GC 1131) [µg/mL] | MIC (E. coli GC 3226) [µg/mL] | MIC (CNS GC 4547) [µg/mL] | MIC (E. coli GC 4559) [µg/mL] | MIC (P. rettgeri GC 4530) [µg/mL] | MIC (E. coli GC 2203) [µg/mL] | MIC (S. aureus GC 4536) [µg/mL] | MIC (E. cloacae GC 3783) [µg/mL] | MIC (E. faecalis GC 2242) [µg/mL] | MIC (S. marcescens GC 4077) [µg/mL] | MIC (K. pneumoniae GC 4534) [µg/mL] | MIC (S. aureus GC 2216) [µg/mL] | MIC (E. faecalis GC 842) [µg/mL] | MIC (CNS GC 4538) [µg/mL] | MIC (M. morganii GC 4531) [µg/mL] | MIC (CNS GC 4537) [µg/mL] | MIC (E. coli GC 4560; GC4560, 18 h) [µg/mL] | MIC (P. aeruginosa GC 4532) [µg/mL] | other results
1 | CCCCCCCCCCCCN(CCCNC(=O)C(NC(=O)C(NC(=O)NC(C(=O)O)C(C)C)C1CCNC(=N)N1)C(O)C(C)C)C(C(=O)O)[C@@H](OC1O[C@H](CN)[C@H](O)[C@H]1OC)[C@H]1O[C@@H](n2ccc(=O)[nH]c2=O)[C@H](O)[C@@H]1O (stereo partly drawn) [Example 7, 16-((R)-{[(3R,4S,5R)-5-(Aminomethyl)-4-hydroxy-3-methoxytetrahydro-2-furanyl]oxy}{(2S,3S,4R,5R)-5-[2,4-dioxo-3,4-dihydro-1 (2H)-pyrimidinyl]-3,4-dihydroxytetrahydro-2-furanyl}methyl)-15-dodecyl-9-(1-hydroxy-2-methylpropyl)-6-(2-iminohexahydro-4-pyrimidinyl)-2-isopropyl-4,7,10-trioxo-3,5,8,11,15-pentaazaheptadecane-1,17-dioic Acid] | > 32 | > 32 | > 32 | > 32 | > 32 | > 32 | > 32 | > 32 | > 32 | > 32 | > 32 | > 32 | > 32 | > 32 | > 32 | > 32 | > 32 | > 32 | 16 (≈ 14.4 µM) | > 32 | 
2 | CO[C@H]1C(O[C@H](C(NCCCNC(=O)C(NC(=O)C(NC(=O)NC(C(=O)O)C(C)C)C2CCNC(=N)N2)C(O)C(C)C)C(=O)O)[C@H]2O[C@@H](n3ccc(=O)[nH]c3=O)[C@H](O)[C@@H]2O)O[C@H](CNCc2ccc(-c3ccccc3)cc2)[C@@H]1O (stereo partly drawn) [Example 19A, 16-((R)-[((3R,4S,5R)-5-{[([1,1′-Biphenyl]-4-ylmethyl)amino]methyl}-4-hydroxy-3-methoxytetrahydro-2-furanyl)oxy]{(2S,3S,4R,5R)-5-[2,4-dioxo-3,4-dihydro-1 (2H)-pyrimidinyl]-3,4-dihydroxytetrahydro-2-furanyl}methyl)-9-(1-hydroxy-2-methylpropyl)-6-(2-iminohexahydro-4-pyrimidinyl)-2-isopropyl-4,7,10-trioxo-3,5,8,11,15-pentaazaheptadecane-1,17-dioic Acid] | > 32 | > 32 | > 32 | > 32 | > 32 | > 32 | > 32 | > 32 | > 32 | > 32 | > 32 | > 32 | > 32 | > 32 | > 32 | > 32 | > 32 | > 32 | 16 (≈ 14.4 µM) | > 32 | 
3 | CCCCCNC[C@H]1OC(O[C@H](C(NCCCNC(=O)C(NC(=O)C(NC(=O)NC(C(=O)O)C(C)C)C2CCNC(=N)N2)C(O)C(C)C)C(=O)O)[C@H]2O[C@@H](n3ccc(=O)[nH]c3=O)[C@H](O)[C@@H]2O)[C@H](OC)[C@H]1O (stereo partly drawn) [Example 18, 16-[(R)-{(2S,3S,4R,5R)-5-[2,4-Dioxo-3,4-dihydro-1 (2H)-pyrimidinyl]-3,4-dihydroxytetrahydro-2-furanyl}({(3R,4S,5R)-4-hydroxy-3-methoxy-5-[(pentylamino)methyl]tetrahydro-2-furanyl}oxy)methyl]-9-(1-hydroxy-2-methylpropyl)-6-(2-iminohexahydro-4-pyrimidinyl)-2-isopropyl-4,7,10-trioxo-3,5,8,11,15-pentaazaheptadecane-1,17-dioic Acid] | > 32 | > 32 | > 32 | > 32 | > 32 | > 32 | > 32 | > 32 | > 32 | > 32 | > 32 | > 32 | > 32 | > 32 | > 32 | > 32 | > 32 | > 32 | > 32 | > 32 | 
4 | CCCCCCCCCCCCNC(=O)NC[C@H]1OC(O[C@H](C2C(=O)N(CCCCCCCCCCCC)C(=O)N2CCCNC(=O)C(NC(=O)C(NC(=O)NC(C(=O)O)C(C)C)C2CCNC(=N)N2)C(O)C(C)C)[C@H]2O[C@@H](n3ccc(=O)[nH]c3=O)[C@H](O)[C@@H]2O)[C@H](OC)[C@H]1O (stereo partly drawn) [Example 15, 14-[5-((R)-{(2S,3S,4R,5R)-5-[2,4-Dioxo-3,4-dihydro-1 (2H)-pyrimidinyl]-3,4-dihydroxytetrahydro-2-furanyl}{[(3R,4S,5R)-5-({[(dodecylamino)carbonyl]amino}methyl)-4-hydroxy-3-methoxytetrahydro-2-furanyl]oxy}methyl)-3-dodecyl-2,4-dioxo-1-imidazolidinyl]-9-(1-hydroxy-2-methylpropyl)-6-(2-iminohexahydro-4-pyrimidinyl)-2-isopropyl-4,7,10-trioxo-3,5,8,11-tetraazatetradecan-1-oic Acid] | > 32 | > 32 | > 32 | > 32 | > 32 | > 32 | > 32 | > 32 | > 32 | > 32 | > 32 | > 32 | > 32 | > 32 | > 32 | > 32 | > 32 | > 32 |  | > 32 | MIC (E. coli GC 4560; GC4560, E. coli GC 4560, Mueller-Hinton broth, 18 hours at 35° C.): > 32 µg/mL
5 | CCCCCCN1C(=O)C([C@@H](OC2O[C@H](CN)[C@H](O)[C@H]2OC)[C@H]2O[C@@H](n3ccc(=O)[nH]c3=O)[C@H](O)[C@@H]2O)N(CCCNC(=O)C(NC(=O)C(NC(=O)NC(C(=O)O)C(C)C)C2CCNC(=N)N2)C(O)C(C)C)C1=O (stereo partly drawn) [Example 3, 14-[5-((R)-{[(3R,4S,5R)-5-(Aminomethyl)-4-hydroxy-3-methoxytetrahydro-2-furanyl]oxy}{(2S,3S,4R,5R)-5-[2,4-dioxo-3,4-dihydro-1 (2H)-pyrimidinyl]-3,4-dihydroxytetrahydro-2-furanyl}methyl)-3-hexyl-2,4-dioxo-1-imidazolidinyl]-9-(1-hydroxy-2-methylpropyl)-6-(2-iminohexahydro-4-pyrimidinyl)-2-isopropyl-4,7,10-trioxo-3,5,8,11-tetraazatetradecan-1-oic acid] | > 32 | > 32 | > 32 | > 32 | > 32 | > 32 | > 32 | > 32 | > 32 | > 32 | > 32 | > 32 | > 32 | > 32 | > 32 | > 32 | > 32 | > 32 | 32 (≈ 30.3 µM) | > 32 | 
